≈ marks a conversion by molar mass, not a printed value. Where two headings read alike, the source gives them in different places.
Key:
[1] = system: reference strains; experiment: Antifungal activity, summary over reference strains; format: cell-based; set-up: key to Antifungal Activity (level): (−) Means no antifungal activity; (±) low activity; (+) moderate activity; (++) high activity at the concentration mentioned
[2] = target: T1, yeast topoisomerase II (Saccharomyces cerevisiae, UniProt P06786); experiment: Yeast topoisomerase II relaxation assay; format: biochemical; details: supercoiled pBR322, tested at 1-200 μM
T1 sequence (P06786 whole entry): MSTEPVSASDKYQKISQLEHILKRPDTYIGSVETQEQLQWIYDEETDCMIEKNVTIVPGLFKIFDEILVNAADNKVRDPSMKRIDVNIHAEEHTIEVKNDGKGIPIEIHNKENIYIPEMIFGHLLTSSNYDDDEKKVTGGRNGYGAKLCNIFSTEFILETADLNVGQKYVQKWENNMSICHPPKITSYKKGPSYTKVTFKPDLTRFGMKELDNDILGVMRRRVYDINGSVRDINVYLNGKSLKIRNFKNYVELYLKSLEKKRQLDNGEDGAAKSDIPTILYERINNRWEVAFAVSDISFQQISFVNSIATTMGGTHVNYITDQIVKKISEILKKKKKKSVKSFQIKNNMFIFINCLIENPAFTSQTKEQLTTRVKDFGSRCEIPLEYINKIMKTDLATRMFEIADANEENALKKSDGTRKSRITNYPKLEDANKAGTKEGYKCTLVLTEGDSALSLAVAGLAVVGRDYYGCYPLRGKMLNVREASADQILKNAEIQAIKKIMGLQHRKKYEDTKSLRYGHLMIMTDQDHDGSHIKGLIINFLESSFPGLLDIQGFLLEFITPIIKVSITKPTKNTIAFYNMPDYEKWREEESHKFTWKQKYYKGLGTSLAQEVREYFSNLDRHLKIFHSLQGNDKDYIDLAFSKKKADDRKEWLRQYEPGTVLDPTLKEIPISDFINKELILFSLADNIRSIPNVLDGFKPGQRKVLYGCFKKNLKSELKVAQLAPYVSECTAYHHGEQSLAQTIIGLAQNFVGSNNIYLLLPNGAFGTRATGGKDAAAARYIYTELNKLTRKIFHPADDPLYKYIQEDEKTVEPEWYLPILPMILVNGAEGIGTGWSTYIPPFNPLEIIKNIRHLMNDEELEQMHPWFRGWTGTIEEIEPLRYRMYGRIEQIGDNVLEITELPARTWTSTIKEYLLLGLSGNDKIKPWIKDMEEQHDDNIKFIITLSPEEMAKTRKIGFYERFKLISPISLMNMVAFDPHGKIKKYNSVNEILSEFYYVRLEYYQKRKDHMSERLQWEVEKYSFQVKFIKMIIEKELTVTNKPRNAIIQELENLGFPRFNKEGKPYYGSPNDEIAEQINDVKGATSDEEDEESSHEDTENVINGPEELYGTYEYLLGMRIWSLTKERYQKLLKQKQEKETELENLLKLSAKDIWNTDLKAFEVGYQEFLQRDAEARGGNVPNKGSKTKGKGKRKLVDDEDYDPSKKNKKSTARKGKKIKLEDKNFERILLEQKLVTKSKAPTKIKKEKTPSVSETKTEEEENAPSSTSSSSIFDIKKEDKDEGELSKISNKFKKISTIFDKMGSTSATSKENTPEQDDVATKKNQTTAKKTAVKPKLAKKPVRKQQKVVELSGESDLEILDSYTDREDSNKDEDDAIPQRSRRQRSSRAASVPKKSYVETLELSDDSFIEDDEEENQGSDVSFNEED
Method: Due to the known activity of acridine and acridone derivatives as human topoisomerase inhibitors widely analysed for cancer chemotherapy, we decided to analyse the influence of Compound 1 as well as its R8 conjugate on the fungal equivalent of that enzyme. The relaxation of supercoiled plasmid DNA by yeast topoisomerase II (yTOPO II) was studied in the presence of different concentrations of both compounds.
The inhibition of yeast topoisomerase II was analysed according to the relaxation assay kit from Inspiralis (Inspiralis Limited, Norwich, UK). Briefly, 250 ng of supercoiled pBR322 DNA (Thermo Fisher Scientific, Waltham, MA, USA), 1 mM ATP (Inspiralis Limited, UK), and 1–200 μM of the analysed compound were mixed with reaction buffer (1 mM Tris-HCl (pH 7.9), 10 mM KCl, 0.5 mM MgCl2, 0.2 % (by volume) glycerol). The reaction was initiated by the addition of an enzyme, allowed to proceed at 30 °C for 30 min and terminated by addition of 40% (m/V) sucrose, 100 mM Tris-HCl pH 8, 10 mM EDTA, and 0.5 mg mL^−1 Bromophenol Blue. Two-step extraction with chloroform:isoamyl alcohol (24:1, by volume) and butanol water was performed and mixtures were analysed on 1% agarose gel in 1 × TAE buffer, 3h, 4.5 V cm^−1. Gel was stained in GelRed 3 × staining solution (Biotium, Fremont, CA, USA) for 30 min and photographed with Gel Doc XR+Gel Documentation System (Bio-Rad: Hercules, CA, USA).

[3] = target: T1, yeast topoisomerase II; experiment: Formation of cleavable complexes in vitro; format: biochemical; details: 0.1-10 μM, pBR322 plasmid DNA
Method: Cleavage assay of yeast topoisomerase II was performed according to the formation of cleavable complexes kit from Inspiralis. The experimental conditions were the same as for the relaxation assay except for the amount of yeast topoisomerase II (16 times more enzyme was used). The reaction was initiated by the addition of the enzyme and allowed to proceed for 10 min at 30 °C. Then, 0.35% SDS and 0.3 mg mL^−1 proteinase K (A&A Biotechnology, Gdynia, Poland) was added, and the probes were incubated in 56 °C for 1 h. The reaction was terminated by the addition of 100 mM Tris-HCl pH 8, 10 mM EDTA, 0.5 mg mL^−1 Bromophenol Blue. Extraction with chloroform:isoamyl alcohol (24:1, by volume) was performed, and mixtures were analysed on the 1.2% agarose gel with 0.5 µg mL^−1 ethidium bromide in 1x TAE buffer, 18 h, 1.1 V cm^−1. Gel was photographed with the Gel Doc XR+Gel Documentation System.

[4] = system: HEK-293; experiment: cells; format: cell-based, human
Method: (§1) The investigated compounds were screened for their in vitro antiproliferative activity towards a human embryonic kidney cell line (HEK-293) and human liver cancer cell line (HEPG2) using colorimetric MTT.
(§2) The human embryonic kidney cell line (HEK-293) and human liver cancer cell line (HEPG2) were purchased from ATCC (Manassas, Virginia, USA). HEK-293 was cultured in Dulbecco’s Modified Eagle Medium (Corning, NY, USA) and HEPG2 in Minimum Essential Medium Eagle (Corning, NY, USA). For each cell line, the culture medium was supplemented with 10% fetal bovine serum, 2 mM L-glutamine, and antibiotics: penicillin 62.6 µg mL^−1 and streptomycin 40 µg mL^−1. The cells were cultured at the humidified atmosphere of 5% CO2/95% air and routinely tested for Mycoplasma contamination.
(§3) Antiproliferative activity of the compounds was determined by (3-(4,5-dimethylthiazol-2-yl)-2,5-diphenyltetrazolium bromide (MTT, Sigma-Aldrich, St. Louis, MO, USA) assay, which involves the assessment of cell viability by the measurement of the cellular oxidoreductase activity. Briefly, cells were seeded into 96-well culture plates and were allowed to adhere overnight. The investigated compounds were dissolved in DMSO and added to wells (1% final concentration of DMSO) in various concentrations. After 72 h incubation, 20 µL of MTT solution in PBS (4 mg mL^−1) was added to each well, and plates were incubated for an additional 3h in standard culture conditions. After that, the medium was aspirated, and formazan crystals were dissolved in DMSO. The absorbance was determined at 570 nm with a microplate reader (Asys UVM 340 Microplate Reader, Biochrom, Cambridge, UK). All experiments were performed three times independently in triplicate.

[5] = system: HEPG2; experiment: cells; format: cell-based, human
Method: as §1, §2, §3

[6] = system: Candida albicans ATCC 10231
[7] = system: Candida glabrata ATCC 90030
[8] = system: Candida krusei ATCC 6258
[9] = system: Candida parapsilosis ATCC 22019
[10] = system: Saccharomyces cerevisiae ATCC 9763
[11] = system: Candida albicans ATCC 10231; experiment: microbe, parasite or virus in culture
[12] = system: Candida glabrata ATCC 90030; experiment: microbe, parasite or virus in culture; details: Nakaseomyces glabratus, ATCC90030, 24 h, pH 7
[13] = system: Candida krusei ATCC 6258; experiment: microbe, parasite or virus in culture; details: Pichia kudriavzevii, ATCC6258, 24 h, pH 7
[14] = system: Candida parapsilosis ATCC 22019; experiment: microbe, parasite or virus in culture; details: Lodderomyces parapsilosis, ATCC22019, 24 h, pH 7
[15] = system: Saccharomyces cerevisiae ATCC 9763; experiment: microbe, parasite or virus in culture; details: ATCC9763, 24 h, pH 7
[16] = system: Candida albicans B3; experiment: microbe, parasite or virus in culture
[17] = system: Candida albicans B4; experiment: microbe, parasite or virus in culture
[18] = system: Candida albicans Gu4; experiment: microbe, parasite or virus in culture
[19] = system: Candida albicans Gu5; experiment: microbe, parasite or virus in culture
[20] = system: Candida albicans F2; experiment: microbe, parasite or virus in culture
[21] = system: Candida albicans F5; experiment: microbe, parasite or virus in culture
[22] = system: C. albicans ATCC 10231 cells; experiment: Fluorescence microscopy of uptake and accumulation; details: 256 μg mL^−1 (8 × MFC of Compound 1-R8)
Method: Candida albicans ATCC 10231 strain were grown in the YPG medium overnight (16–18 h) at 30 °C, washed twice with sterile phosphate-buffered saline (PBS) and resuspended in RPMI 1640 at a cell density of 2 × 10^7 cells mL^−1. The inoculum (5 mL) was added to 5 mL RPMI 1640 with 256 μg mL^−1 of tested compounds. After appropriate period of time, 2 mL of cell suspension was washed three times with sterile phosphate-buffered saline (PBS). If appropriate, cells where resuspended in 1 mL of PBS and 5 μL of 2 mg mL^−1 propidium iodide (PI, Sigma-Aldrich, St. Louis, MO, USA) were added and incubated for 30 min and then rinsed three times with PBS buffer. After that, cells were resuspended in 5 μL 90% (by volume) glycerol/10% (by volume) 1 × PBS and transferred to a microscopic slide. The cells were examined with the Olympus BX-60 fluorescence microscope (λex = 330–385 nm, λem ≥ 420 nm, lens × 40) equipped with the Olympus XC50 digital camera (Olympus Corporation, Tokyo, Japan) or LSM800 T-PMT confocal microscope with a CCD camera (ZEISS, Göttingen, Germany). Images were analysed and processed with cellSens Dimension and ZEN Blue software [47].

[23] = target: T1, yeast topoisomerase II; set-up: method as in PMID 33572407; details: read-out: IC50 (yeast topoisomerase II relaxation); cited from earlier work
[24] = system: C. albicans ATCC 10231; experiment: microbe, parasite or virus in culture; format: cell-based; details: ATCC 10231
Method: (§4) To establish the possible mode of action for Compound 1-R8, we have analysed the killing activity and determined minimal fungicidal concentrations (MFCs) (Table 4). Additionally, killing kinetics analysis against pathogenic C. albicans ATCC 10231 was performed (Figure 2).
(§5) Minimum fungicidal concentrations (MFCs) were determined as described previously by spot assay. The MFC was determined as the lowest concentration of the test compound in which no recovery of microorganisms was observed.

[25] = system: C. glabrata DSM 11226; experiment: microbe, parasite or virus in culture; format: cell-based; details: DSM 11226
Method: as §4, §5

[26] = system: C. krusei DSM 6128; experiment: microbe, parasite or virus in culture; format: cell-based; details: DSM 6128
Method: as §4, §5

[27] = system: C. parapsilosis DSM 5784; experiment: microbe, parasite or virus in culture; format: cell-based; details: DSM 5784
Method: as §4, §5

[28] = system: S. cerevisiae ATCC 9763; experiment: Minimal fungicidal concentration, spot assay; format: cell-based; details: minimal fungicidal concentration that kills 99% of cells
Method: as §4, §5

[29] = system: Candida albicans B3; details: B3, 12 h
[30] = system: Candida albicans B4; details: B4, 12 h
[31] = system: Candida albicans Gu4; details: Gu4, 12 h
[32] = system: Candida albicans Gu5; details: Gu5, 12 h
[33] = system: Candida albicans F2; details: F2, 12 h
[34] = system: Candida albicans F5; details: F5, 12 h
[35] = system: reference and fluconazole-resistant clinical strains; details: 12 h

For NCCNc1ccc2ncn3c4ccc(O)cc4c(=O)c1c23 [Compound 1, 5-((2-Aminoethyl)amino)-8-hydroxy-6H-imidazo[4,5,1-de]acridin-6-one], the “Antifungal Activity (level)” value ([1]; Table 3) was “−”, the “antifungal activity” value ([1]; as reported in Table 1) was “no antifungal activity was observed” and the “concentration that totally inhibited yeast topoisomerase II-mediated relaxation” value [2] was 50 µM. The “formation of DNA–yeast topoisomerase II cleavable complexes” value [3] was “stimulated the formation of DNA–yeast topoisomerase II cleavable complexes”, the IC50 ([4]; Homo sapiens, HEK293, 72 h treatment, MTT, ± SD, read-out: IC50 (antiproliferative activity)) was 550 ± 125 nM and the IC50 ([5]; Homo sapiens, HEPG2, 72 h treatment, MTT, ± SD, read-out: IC50 (antiproliferative activity)) was 364 ± 13 nM. The “IC50 HEK293/MIC90 (mycostatic selectivity index)” value ([6]; HEK293 vs Candida albicans ATCC 10231, MIC converted to micromolar) was under 0.0058, the “IC50 HEPG2/MIC90 (mycostatic selectivity index)” value ([6]; HEPG2 vs Candida albicans ATCC 10231) was under 0.0038 and the “IC50 HEK293/MIC90 (mycostatic selectivity index)” value ([7]; HEK293 vs Candida glabrata ATCC 90030) was under 0.0058. For the same compound, the “IC50 HEPG2/MIC90 (mycostatic selectivity index)” value ([7]; HEPG2 vs Candida glabrata ATCC 90030) was under 0.0038, the “IC50 HEK293/MIC90 (mycostatic selectivity index)” value ([8]; HEK293 vs Candida krusei ATCC 6258) was under 0.0058 and the “IC50 HEPG2/MIC90 (mycostatic selectivity index)” value ([8]; HEPG2 vs Candida krusei ATCC 6258) was under 0.0038. The “IC50 HEK293/MIC90 (mycostatic selectivity index)” value ([9]; HEK293 vs Candida parapsilosis ATCC 22019) was under 0.0058, the “IC50 HEPG2/MIC90 (mycostatic selectivity index)” value ([9]; HEPG2 vs Candida parapsilosis ATCC 22019) was under 0.0038 and the “IC50 HEK293/MIC90 (mycostatic selectivity index)” value ([10]; HEK293 vs Saccharomyces cerevisiae ATCC 9763) was under 0.0058. For the same compound, the “IC50 HEPG2/MIC90 (mycostatic selectivity index)” value ([10]; HEPG2 vs Saccharomyces cerevisiae ATCC 9763) was under 0.0038, the MIC90 ([11]; ATCC10231) was over 64 µg/mL and the MIC90 ([11]; ATCC10231, 24 h, pH 7) was over 64 µg/mL. It also gave an MIC90 [12] of over 64 µg/mL, an MIC90 [13] of over 64 µg/mL and an MIC90 [14] of over 64 µg/mL. The MIC90 [15] was over 64 µg/mL, the MIC90 [16] was over 64 µg/mL and the MIC90 [17] was over 64 µg/mL. The MIC90 [18] was over 64 µg/mL, the MIC90 [19] was over 64 µg/mL and the MIC90 [20] was over 64 µg/mL. The MIC90 [21] was over 64 µg/mL and the “uptake and accumulation in fungal cells” value [22] was “no significant accumulation”.
In the case of COc1cc(NS(C)(=O)=O)ccc1Nc1c2ccccc2nc2ccccc12 [m-AMSA], the IC50 [23] is given as over 200000 nM.
Work on N=C(N)NCCC[C@H](NC(=O)[C@H](CCCNC(=N)N)NC(=O)[C@H](CCCNC(=N)N)NC(=O)[C@H](CCCNC(=N)N)NC(=O)[C@H](CCCNC(=N)N)NC(=O)[C@H](CCCNC(=N)N)NC(=O)[C@H](CCCNC(=N)N)NC(=O)[C@@H](N)CCCNC(=N)N)C(=O)NCCNc1ccc2ncn3c4ccc(O)cc4c(=O)c1c23 [Compound 1-R8] yielded an MFC [24] of 32 µg/mL (≈ 20.7 µM), an MFC [25] of 128 µg/mL (≈ 82.9 µM) and an MFC [26] of 16 µg/mL (≈ 10.4 µM). It also gave an MFC [27] of 8 µg/mL (≈ 5.18 µM), an MFC [28] of 2 µg/mL (≈ 1.3 µM) and an IC50 ([4]; 72 h) of 1390 ± 99 nM. It also gave an IC50 ([5]; 72 h) of 991 ± 97 nM, an MIC90 ([6]; ATCC 10231, 24 h, pH 7) of 1 µg/mL (≈ 0.648 µM) and an MIC90 ([7]; ATCC 90030, 24 h, pH 7) of 4 µg/mL (≈ 2.59 µM). The MIC90 ([8]; ATCC 6258, 24 h, pH 7) was 0.5 µg/mL (≈ 0.324 µM), the MIC90 ([9]; ATCC 22019, 24 h, pH 7) was 0.25 µg/mL (≈ 0.162 µM) and the MIC90 ([10]; ATCC 9763, 24 h, pH 7) was 1 µg/mL (≈ 0.648 µM). For the same compound, the MIC90 [29] was 2 µg/mL (≈ 1.3 µM), the MIC90 [30] was 2 µg/mL (≈ 1.3 µM) and the MIC90 [31] was 2 µg/mL (≈ 1.3 µM). For the same compound, the MIC90 [32] was 2 µg/mL (≈ 1.3 µM), the MIC90 [33] was 1 µg/mL (≈ 0.648 µM) and the MIC90 [34] was 1 µg/mL (≈ 0.648 µM). It also gave an MICs [35] of at most 4 µg/mL.
